The source of these data is ChEMBL document CHEMBL5505950, “An updated review of chemical compounds with anti-Toxoplasma gondii activity” (Eur J Med Chem, 2023).

Test system in the first assay: not listed separately
Kind of assay: Inhibition of recombinant Toxoplasma gondii Farnesyl pyrophosphate synthase.
Conditions: not given
Usually IC50 stands for the concentration at which inhibition is half-maximal. On to `CCCCCCCSCC(P(=O)(O)O)P(=O)(O)O`, for which the IC50 came to 69 nM.

For `CCCCCCCCCCSCC(P(=O)(O)O)P(=O)(O)O`, the IC50 came out at 21 nM.

As to `CCCCCCC[S+]([O-])CC(P(=O)(O)O)P(=O)(O)O` (stereo unspecified), the concentration for half-maximal inhibition (IC50) was 9 nM.

With `CCCCCCCCCCS(=O)(=O)CC(P(=O)(O)O)P(=O)(O)O`, the IC50 worked out at 270 nM.

Another assay concerns Toxoplasma gondii. Kind of assay: Antiparasitic activity against Toxoplasma gondii tachyzoites infected in hTRET cells assessed as parasitic growth inhibition.
Conditions: not given
It counts as functional, organism-based.
Take `CCCCCCCSCC(P(=O)(O)O)P(=O)(O)O`: the EC50 came to 970 nM.

For the molecule `CCCCCCCCCCSCC(P(=O)(O)O)P(=O)(O)O`, the EC50 is 1800 nM.

Turning to `CCCCCCCNCC(P(=O)(O)O)P(=O)(O)O`, the EC50 was over 10000 nM.

Turning to `CCCCCCC[S+]([O-])CC(P(=O)(O)O)P(=O)(O)O` (stereo unspecified), the EC50 was determined as 5000 nM.

On to `CCCCCCCCCCS(=O)(=O)CC(P(=O)(O)O)P(=O)(O)O`, for which the EC50 was found to be 110 nM.

As to `O=P(O)(O)C(CSCCOc1cccc(Oc2ccccc2)c1)P(=O)(O)O`, the EC50 stood at 670 nM.

The subject of a further assay is Toxoplasma gondii. Kind of assay: Antiparasitic activity against Toxoplasma gondii assessed as parasitic growth inhibition.
Conditions: not given
It counts as functional, organism-based.
Consider `N#C[Se]CCOc1ccc(Oc2ccccc2)cc1`, for which the EC50 came out at 3700 nM.

Take `N#C[Se]CCOc1cccc(Oc2ccccc2)c1`: the EC50 came out at 2870 nM.

`N#CSCCOc1ccc(Oc2ccccc2)cc1`: the EC50 is 4800 nM.

A further assay deals with Toxoplasma gondii. Kind of assay: Antiparasitic activity against Toxoplasma gondii tachyzoites infected in hTRET cells assessed as reduction in parasitic growth. The class given is functional. Conditions: read-out: ED50 (the source's name).
For the molecule `COC(=O)/C=C1/S/C(=N/N=C(C)\C=N\O)NC1=O`, the EC50 is 490 nM.

As to `COC(=O)/C=C1/S/C(=N/N=C(/C)c2ccccn2)NC1=O`, the EC50 was found to be 200 nM.

For the molecule `CCCCCCCCCC(O)(P(=O)(O)O)P(=O)(O)O`, the EC50 is 850 nM.

As for `C[C@@H](COC(=O)NCCCn1c(=O)n(C)c2ccccc21)N(Cc1ccccc1)Cc1ccccc1`, the EC50 worked out at 380 nM.

Regarding `COC(=O)/C=C1/S/C(=N/N=C\c2ccccc2O)NC1=O`, the EC50 turned out to be 660 nM.

For `C[C@@H](COC(=O)N1CCC(n2c(=O)n(C)c3ccccc32)CC1)N(Cc1ccccc1)Cc1ccccc1`, the EC50 turned out to be 200 nM.

As for `O=C(OCCOCc1ccccc1)N1CCC(n2c(=O)[nH]c3ccccc32)CC1`, the EC50 was found to be 500 nM.

Test system in the next assay: not listed separately
Kind of assay: Inhibition of Toxoplasma gondii Farnesyl pyrophosphate synthase.
Conditions: not given
`CCCCCCCCCC(O)(P(=O)(O)O)P(=O)(O)O` yielded an IC50 of 130 nM.

Test system in a further assay: not listed separately
Kind of assay: Inhibition of Toxoplasma gondii Heptaprenyl Diphosphate Synthase Coq1 expressed in Escherichia coli BL21.
Conditions: not given
Turning to `CCCCCCCCCC(O)(P(=O)(O)O)P(=O)(O)O`, inhibition was half-maximal at 2130 nM (IC50).

The target in the next assay is T1, Bifunctional dihydrofolate reductase-thymidylate synthase (Toxoplasma gondii, UniProt Q07422).
T1 sequence (Q07422 whole entry): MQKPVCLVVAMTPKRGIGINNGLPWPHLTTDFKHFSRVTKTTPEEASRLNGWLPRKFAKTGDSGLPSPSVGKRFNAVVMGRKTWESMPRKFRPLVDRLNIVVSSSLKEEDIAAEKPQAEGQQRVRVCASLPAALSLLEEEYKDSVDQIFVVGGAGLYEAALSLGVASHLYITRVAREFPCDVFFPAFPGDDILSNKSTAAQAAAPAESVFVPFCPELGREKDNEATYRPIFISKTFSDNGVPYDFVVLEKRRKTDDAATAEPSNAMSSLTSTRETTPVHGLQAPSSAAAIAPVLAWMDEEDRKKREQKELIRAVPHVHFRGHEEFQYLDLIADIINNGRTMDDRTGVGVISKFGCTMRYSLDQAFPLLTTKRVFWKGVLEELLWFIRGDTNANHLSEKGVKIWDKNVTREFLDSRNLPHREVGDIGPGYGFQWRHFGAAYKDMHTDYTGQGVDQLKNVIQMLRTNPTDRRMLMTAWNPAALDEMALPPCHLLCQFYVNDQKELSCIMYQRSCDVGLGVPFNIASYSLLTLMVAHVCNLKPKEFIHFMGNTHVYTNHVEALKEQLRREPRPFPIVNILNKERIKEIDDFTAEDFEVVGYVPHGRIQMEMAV
Kind of assay: Inhibition of Toxoplasma gondii Dihydrofolate reductase.
Conditions: not given
`CCc1sc2nc(N)[nH]c(=O)c2c1Sc1ccc2ccccc2c1` came in with a concentration for half-maximal inhibition (IC50) of 8 nM.

`CCc1sc2nc(N)[nH]c(=O)c2c1Sc1ccc(C(=O)N[C@@H](CCC(=O)O)C(=O)O)cc1` came in with an IC50 of 2 nM.

The molecule `COc1ccc(C#Cc2cccc(C(=O)O)c2)cc1Cc1cnc2nc(N)nc(N)c2c1OC` returned an IC50 of 5 nM.

`CCc1sc2nc(N)[nH]c(=O)c2c1Sc1ccc([N+](=O)[O-])cc1` yielded an IC50 of 8 nM.

For `COc1ccc(CCCCCCC(=O)O)cc1Cc1cnc2nc(N)nc(N)c2c1OC`, the 50% inhibitory concentration (IC50) worked out at 3 nM.

For `CCc1sc2nc(N)[nH]c(=O)c2c1Sc1ccc(Br)cc1`, the concentration for half-maximal inhibition (IC50) stood at 10 nM.

For another assay, the system named is Toxoplasma gondii. Kind of assay: Antiparasitic activity against Toxoplasma gondii EGS infected in human HFF cells. The class given is functional. Conditions: read-out: ED50 (the source's name).
For the molecule `O=C(CCCCCCC(=O)Nc1ccccc1)NO` [VORINOSTAT], the EC50 was determined as 70 nM.

The next assay deals with Toxoplasma gondii. Kind of assay: Antiparasitic activity against Toxoplasma gondii RH tachyzoites infected in human HFF cells assessed as parasitic growth inhibition. Conditions: time 72 hrs, read-out: ED50 (the source's name). It counts as functional.
On to `O=C1C(O)=C([C@H]2CC[C@H](c3ccc(Cl)cc3)CC2)C(=O)c2ccccc21` [ATOVAQUONE], for which the EC50 was determined as 180 nM.

Regarding `Cc1coc2c1C(=O)C(=O)c1c-2ccc2c1CCCC2(C)C` [TANSHINONE IIA], the EC50 turned out to be 1000 nM.

In the case of `CO/C=C(\C(=O)OC)c1ccccc1Oc1cc(Oc2ccccc2C#N)ncn1` [Azoxystrobin], the EC50 was 7050 nM.

`OCCOCCN1CCN(C(c2ccccc2)c2ccc(Cl)cc2)CC1` (stereo unspecified) [HYDROXYZINE]: the EC50 was determined as 2500 nM.

Turning to `Cc1c(NC(=O)c2ccc(C(C)(C)C)cc2)cccc1-c1cn(C)c(=O)c(Nc2ccc(C(=O)N3CCOCC3)cc2)n1`, the EC50 was determined as 14600 nM.

For the molecule `CC[C@]1(C)NC(=O)[C@H](CCCCCC(=O)[C@@H](C)OC(C)=O)NC(=O)[C@H]2C[C@H](C)CN2C(=O)[C@H](Cc2ccccc2)NC1=O`, the EC50 came to 1 nM.

For the molecule `CC(C)(C)C1CCC(CC2C(=O)C(=O)c3ccccc3C2O)CC1` (stereo unspecified), the EC50 is 1180 nM.

For the molecule `CCC(=O)CCCCC[C@@H]1NC(=O)[C@H]2C[C@H](C)CN2C(=O)[C@H](Cc2ccccc2)NC(=O)[C@](C)(CC)NC1=O`, the EC50 worked out at 11 nM.

On to `CO/N=C(\C(=O)OC)c1ccccc1CO/N=C(\C)c1cccc(C(F)(F)F)c1`, for which the EC50 is 500 nM.

As for `CNc1[nH]c(Nc2ccc(C(=O)N3CCOCC3)cc2OC)nc2ncc(Cl)c1-2`, the EC50 was 5880 nM.

For the molecule `CCOc1ccc2cc(-c3nn(C(C)(C)C)c(N)c3C(N)=O)cnc2c1`, the EC50 turned out to be 2760 nM.

With `O=C(NC1CC1)c1ccc(N2CCC(Cc3ccccc3)CC2)nc1`, the EC50 was 2810 nM.
